Measured values: US20210169959A1, “TERMINALIA FERDINANDIANA EXTRACT AND PRODUCTS CONTAINING EXTRACT OF TERMINALIA FERDINANDIANA FOR ANTIMICROBIAL OR ANTIBACTERIAL APPLICATIONS” (RISING PHOENIX INDUSTRIES PTY LTD, priority 2017, published 2021)
Values after ≈ are worked out from the molar mass of the structure shown. Values joined by “and” are separate entries in the source; they are usually repeats but may differ in a detail not shown here. Identical values can stand only once. Like-named read-outs stand apart in the source and are kept apart here.

Experiments:
Artemia nauplii = conditions: for Toxicity Compound Alone ALA: 24 hours exposure; for Toxicity Compound/ascorbic acid combination ALA: in combination with ascorbic acid
human dermal fibroblast = conditions: for Toxicity Compound/ascorbic acid combination HDF: in combination with ascorbic acid
[1] = tested on: Giardia duodenalis trophozoites, ATCC203333; assay: G. duodenalis trophozoite proliferation, ATCC203333 (metronidazole sensitive); conditions: for Class of Interaction / ΣFIC50: in combination with ascorbic acid
[2] = tested on: Giardia duodenalis trophozoites, ATCC PRA-251; assay: G. duodenalis trophozoite proliferation, ATCC PRA-251 (metronidazole resistant); conditions: for Class of Interaction / ΣFIC50: in combination with ascorbic acid; for inhibition of the metronidazole resistant strain (in words): pure compounds at 300 μg/mL; for IC50: read-out: IC50 Single Compound
[3] = tested on: Giardia duodenalis trophozoites; assay: G. duodenalis trophozoite proliferation (strain not specified or several strains together); format: cell-based; conditions: for inhibition of trophozoite proliferation / inhibition at 300 µg/mL: pure compounds at 300 μg/mL; for inhibition at 300 µg/mL: Giardia duodenalis; for IC50: compound alone, over the different strains
[4] = tested on: Giardia duodenalis trophozoites, sheep S2 strain; assay: G. duodenalis trophozoite proliferation, sheep S2 strain; conditions: for IC50 Single Compound / IC50: compound alone; for Class of Interaction / ΣFIC50: in combination with ascorbic acid
[5] = tested on: Artemia franciscana nauplii; conditions: in vivo
Bacillus anthracis = assay: microbe, parasite or virus in culture; format: cell-based
Clostridium perfringens = assay: microbe, parasite or virus in culture; format: cell-based
[6] = compound alone, 24 hours exposure
[7] = read-out: IC50 Single Compound, ATCC203333, compound alone
[8] = metronidazole sensitive G. duodenalis strain
[9] = read-out: IC50 Single Compound, Sheep S2 Strain
[10] = all three G. duodenalis strains
[11] = Giardia duodenalis, ATCC203333, read-out: IC50 Single Compound
[12] = Giardia duodenalis, in Ovis aries, read-out: IC50 Single Compound, Sheep S2 Strain

| Compound | Toxicity Compound Alone ALA (Artemia nauplii) | Toxicity Compound/ascorbic acid combination ALA (Artemia nauplii) [µg/mL] | Toxicity Compound Alone HDF (human dermal fibroblast; [6]) | Toxicity Compound/ascorbic acid combination HDF (human dermal fibroblast) [µg/mL] | Class of Interaction ([1]; ATCC203333) | ΣFIC50 ([1]; ATCC203333) | Class of Interaction ([2]; ATCC PRA-251) | ΣFIC50 ([2]; ATCC PRA-251) | IC50 Single Compound ([4]; Sheep S2 Strain) [µg/mL] | Class of Interaction ([4]; Sheep S2 Strain) | ΣFIC50 ([4]; Sheep S2 Strain) | inhibition of trophozoite proliferation [3, 10] | other results |
| --- | --- | --- | --- | --- | --- | --- | --- | --- | --- | --- | --- | --- | --- |
| O=C1O[C@@H]([C@H](O)[C@H](O)CO)[C@@H](O)[C@H]1O [Glucohepatonic acid lactone, glucohepatonic acid-1,4-lactone] | CND | >500 | CND | >500 | Independent | 1.57 | Independent | 1.25 | 1746 (≈ 8.39 mM) | independent (independent (ΣFIC50 > 1.0-4.0)) | 1.19 |  | IC50 Single Compound ([1]; ATCC203333, compound alone): 2255 µg/mL (≈ 10.8 mM); IC50 [1, 7]: 12.8 mM; IC50 Single Compound ([2]; ATCC PRA-251, compound alone): 3536 µg/mL (≈ 17 mM); inhibition of the metronidazole resistant strain (in words) [2]: ineffective inhibitors; IC50 ([2]; ATCC PRA-251, compound alone): 20.1 mM; inhibition of trophozoite proliferation [3, 8]: ~30%; IC50 [4, 9]: 9.91 mM |
| c1ncc2[nH]cnc2n1 [Purine, purine] | CND |  |  |  |  |  |  |  |  |  |  | did not significantly affect the growth | Toxicity Compound Alone HDF (human dermal fibroblast): CND |
| eujavonic acid | CND | >500 | CND | >500 | Additive | 0.64 | Additive | 0.72 | 1438 | Additive | 0.58 | ~20% | IC50 Single Compound ([1]; ATCC203333, compound alone): 1683 µg/mL; IC50 [1, 7]: 7.07 mM; IC50 Single Compound ([2]; ATCC PRA-251, compound alone): 1850 µg/mL; IC50 ([2]; ATCC PRA-251, compound alone): 7.77 mM; IC50 [4, 9]: 6.04 mM |
| Cc1cc(OCCCC(C)(C)C(=O)O)c(C)cc1O [HMDP, 5-(4-hydroxy-2,5-dimethylphenoxy)-2,2-dimethyl-pentanoic acid] | CND | >500 | CND | >500 | Additive | 0.81 | Independent | 1.1 |  | Additive | 0.69 |  | IC50 [1, 11]: 1580 µg/mL and 5.96 mM; IC50 ([2]; Giardia duodenalis): 2030 µg/mL and 7.63 mM; inhibition at 300 µg/mL [3, 10]: ~20%; IC50 [4, 12]: 1840 µg/mL and 6.89 mM |
| O=C(O)c1cc(O)c(O)c(O)c1 [Gallic acid, gallic acid] | 132 µg/mL | 147 |  |  | Synergy | 0.38 | Synergy | 0.32 | 1156 (≈ 6.8 mM) | Synergy | 0.15 |  | Toxicity Compound Alone HDF (human dermal fibroblast; human, 24 h): 320 µg/mL; IC50 [1, 11]: 1370 µg/mL and 8.04 mM; IC50 ([2]; Giardia duodenalis): 1260 µg/mL and 7.38 mM; inhibition at 300 µg/mL [3, 10]: ~50%; ratios inducing synergistic responses (isobologram) ([3]; gallic acid:ascorbic acid combinations, all three strains): 30-60 % gallic acid; IC50 [4, 12]: 1150 µg/mL and 6.79 mM |
| O=C1O[C@H]([C@@H](O)CO)C(O)=C1O [Ascorbic acid, ascorbic acid] |  |  |  |  |  |  |  |  |  |  |  |  | IC50 [1, 11]: 1910 µg/mL and 10.8 mM; IC50 ([2]; Giardia duodenalis): 2850 µg/mL and 16.2 mM; inhibition of the metronidazole resistant strain (in words) [2]: ineffective inhibitors; inhibition at 300 µg/mL [3, 8]: ~15%; IC50 [4, 12]: 1870 µg/mL and 10.6 mM |
| O=C(O)[C@]1(O)C[C@@H](O)[C@@H](O)[C@H](O)C1 [Quinic acid, quinic acid] | CND | >500 |  |  | Additive | 0.73 | Additive | 0.95 |  | Additive | 0.51 |  | Toxicity Compound Alone HDF (human dermal fibroblast): CND; IC50 [1, 11]: 1430 µg/mL and 7.43 mM; IC50 ([2]; Giardia duodenalis): 1760 µg/mL and 9.13 mM; inhibition at 300 µg/mL [3, 10]: ~30%; IC50 [4, 12]: 1170 µg/mL and 6.1 mM |
| O=C(O)[C@H]1O[C@@H](Oc2cccc(O)c2O)[C@H](O)[C@@H](O)[C@@H]1O [DPGA, 2,3-dihydroxyphenyl B-D-glucopyranosiduronic acid] | CND | >500 | CND | >500 | Synergy | 0.18 | Synergy | 0.18 | 47 (≈ 0.156 mM) | Synergy | 0.11 | 100% | IC50 Single Compound ([1]; ATCC203333, compound alone): 38 µg/mL (≈ 0.126 mM); IC50 [1, 7]: 0.126 mM; IC50 Single Compound ([2]; ATCC PRA-251, compound alone): 72 µg/mL (≈ 0.238 mM); ratios with synergistic interaction (isobologram) ([2]; DPGA:ascorbic acid combinations, metronidazole resistant strain): 30-50 % DPGA; IC50 ([2]; ATCC PRA-251, compound alone): 0.238 mM; ratios producing synergistic inhibition (isobologram) ([3]; DPGA:ascorbic acid combinations, metronidazole sensitive strains): ≤ 60 % DPGA; IC50 as share of the IC50 of ascorbic acid ([3]; components tested separately): approximately 5%; potency relative to ascorbic acid ([3]; components tested separately): ~20 times; IC50 [3]: 38 to 72 µg/mL; IC50 ([3]; read-out: IC50): ≥ 0.126 mM and 0.126 to 0.238 mM; IC50 [4, 9]: 0.156 mM |
| O=C(O)C[C@H](C(=O)O)[C@H]1c2c(cc(O)c(O)c2O)C(=O)O[C@@H]1C(=O)O [Chebulic acid, chebulic acid] | 165 µg/mL | 224 | 380 µg/mL | 375 | Additive | 0.6 | Additive | 0.52 | 1283 (≈ 3.6 mM) | Additive | 0.56 | ~40% | IC50 Single Compound ([1]; ATCC203333, compound alone): 985 µg/mL (≈ 2.76 mM); IC50 [1, 7]: 2.76 mM; IC50 Single Compound ([2]; ATCC PRA-251, compound alone): 1220 µg/mL (≈ 3.42 mM); IC50 ([2]; ATCC PRA-251, compound alone): 3.42 mM; IC50 [4, 9]: 3.6 mM |
| [K+].[K+].[O]=[Cr](=[O])([O-])[O][Cr](=[O])(=[O])[O-] [potassium dichromate, Potassium dichromate, reference compound] | 37 µg/mL |  | 42 µg/mL |  |  |  |  |  |  |  |  |  | mortality [5]: 100%; onset of nauplii death (time of exposure) [5]: ≤ 3 h |
| O=C1O[C@H](CO)[C@@H](O)[C@H](O)[C@H]1O [Gluconolactone, gluconolactone] | CND |  |  |  |  |  |  |  |  |  |  | did not significantly affect the growth | Toxicity Compound Alone HDF (human dermal fibroblast): CND |
| CC1(C)S[C@@H]2[C@H](NC(=O)[C@H](N)c3ccccc3)C(=O)N2[C@H]1C(=O)O [ampicillin] |  |  |  |  |  |  |  |  |  |  |  |  | zone of inhibition at 10 µg/disc (Bacillus anthracis; Bacillus anthracis, read-out: zones of inhibition): 10 ± 0.7 mm; zone of inhibition at 10 µg/disc (Clostridium perfringens; Clostridium perfringens, read-out: zones of inhibition): 13 ± 1 mm |
| O=C1O[C@H](CO)[C@@H](O)[C@H]1O [Ribolactone, ribonolactone] | CND |  | CND |  |  |  |  |  |  |  |  | did not significantly affect the growth |  |
| penicillin |  |  |  |  |  |  |  |  |  |  |  |  | zones of inhibition (Bacillus anthracis; 10 μL extract per 5 mm disc, penicillin 2 μg, ampicillin 10 μg, mean ± SEM): 8.3±0.6 mm; zones of inhibition (Clostridium perfringens; 10 μL extract per 6 mm disc, penicillin 2 μg, ampicillin 10 μg, mean ± SEM): 12.3±0.3 mm |
